Some test systems named below: KM-20L2; LXFL 529; SNB-78; RXF 631; DLD-1; DMS-114; M19-MEL; DMS-273; XF498.
Holding throughout (experiment): NCI-60 cell line screen, 48 h

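A five-concentration, 48-hour dose response in 96-well plates underlies each endpoint, interpolated linearly between surrounding concentrations. GI50 is the concentration that inhibits growth by half.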 Activity calls are given as the source filed them. No stated cut-off is given here; in the data, active = GI50 up to about 1.1 µM and inactive = higher. Where a SMILES comes first, the peptide text is derived from it. [ ]: non-standard residue; d: D form. The star is where a group is joined. ξ: configuration not given here. NMeF = CN[C@@H](Cc1ccccc1)C(=O)O; NMeV = CN[C@H](C(=O)O)C(C)C; ξNMeN = CNC(CC(N)=O)C(=O)O; NMeA = CN[C@@H](C)C(=O)O; ξNMeV = CNC(C(=O)O)C(C)C; Boc = CC(C)(C)OC(=O)*

As to `COC(=O)C1C=CCC2CCCCC21N1CCCC1` (stereo not given), the GI50 in the test on KM-20L2 was 83.2 µM (inactive); in the test with LXFL 529 it was 81.5 µM (inactive); in the test on SNB-78, > 100 µM (inactive); with RXF 631 it was > 100 µM (inactive); in the test with DLD-1, > 100 µM (inactive); with DMS-114, 36.1 µM (inactive). For the same compound, the results for the GI50 in the test on M19-MEL and with DMS-273 were 59.3 µM (inactive) and > 100 µM (inactive), respectively.

As to `COC(=O)C1CCc2c1c(=O)n1c([nH]c3ccccc31)c2C#N` (stereo not given), the GI50 with KM-20L2, with LXFL 529, in the test on XF498, in the test with SNB-78, in the test on DLD-1 and in the test with DMS-114 was > 100 µM (inactive) throughout. Further, the GI50 in the test with M19-MEL and with DMS-273 was > 100 µM (inactive) in each case.

Turning to `CC(C)NC(C)Cc1ccccc1` (stereo not given), the GI50 in the test with KM-20L2, in the test with LXFL 529, with SNB-78, in the test with RXF 631, in the test on DLD-1 and in the test with DMS-114 was > 100 µM (inactive) in each case. Further, the GI50 in the test on M19-MEL and with DMS-273 was > 100 µM (inactive) throughout.

For `CC(C)(C)c1ccc(OC2CCO2)cc1` (stereo not given), the GI50 was 19.5 µM (inactive) in the test with KM-20L2; 54.6 µM (inactive) in the test with LXFL 529; 49.9 µM (inactive) in the test with SNB-78; 39.5 µM (inactive) in the test with DMS-114; 23.1 µM (inactive) with M19-MEL; 34.4 µM (inactive) with DMS-273.

`CC(=O)O[C@H]1CC[C@@]2(C)C(=C/C(=N\[N+](=O)[O-])[C@H]3C4CCC([C@H](C)CCCC(C)C)[C@@]4(C)CCC32)C1` (stereo not given in full): the GI50 in the test on KM-20L2, with LXFL 529, in the test with XF498, in the test on DLD-1, with DMS-114 and in the test on M19-MEL was > 100 µM (inactive) each time. The GI50 in the test with DMS-273 was > 100 µM (inactive).

As for `Oc1cc(-c2ccccc2)c2ccccc2n1`, the GI50 with LXFL 529 is 34.2 µM (inactive); with DLD-1, 56 µM (inactive); with DMS-114 it was 12.7 µM (inactive); with M19-MEL it was 82.6 µM (inactive); in the test on DMS-273, 60.5 µM (inactive).

In the case of `C[C@H]1C/C=C/[C@H]2[C@@H]3O[C@]3(C)[C@@H](C)[C@H]3[C@H](Cc4ccccc4)NC(=O)[C@]32OC(=O)O/C=C/[C@@](C)(O)C1=O` [CYTOCHALASIN E], the GI50 in the test with KM-20L2 was 0.0248 µM (active); with XF498 it was 0.0183 µM (active); in the test with SNB-78, 0.0189 µM (active); with DMS-114 it was 0.0548 µM (active); in the test on M19-MEL, 0.0759 µM (active); in the test on DMS-273, 0.091 µM (active).

On to `CCCCc1c2c(nc3c1CCC/C3=C\c1ccccc1)/C(=C/c1ccccc1)CCC2`, for which the GI50 in the test with KM-20L2, in the test with LXFL 529, with XF498, with DMS-114, with M19-MEL and with DMS-273 was > 100 µM (inactive) each time.

`COC(=O)/C(C)=C(/CCC1(C)OCCO1)O[Si](C)(C)C`: the GI50 with KM-20L2, in the test with LXFL 529, in the test with XF498, in the test with SNB-78, with DLD-1 and in the test on DMS-114 was > 100 µM (inactive) each time. Further, the GI50 in the test on M19-MEL and with DMS-273 was > 100 µM (inactive) in each case.

With `Oc1cc(C2OCCCO2)cc(O)c1O`, the GI50 in the test with KM-20L2, in the test with LXFL 529, in the test with SNB-78, in the test on RXF 631, in the test with DLD-1 and in the test with DMS-114 was > 100 µM (inactive) throughout. The GI50 with M19-MEL and in the test on DMS-273 was > 100 µM (inactive) each time.

`Cc1ccc(C)c2sc3cc(=O)ccc-3nc12`: the GI50 with KM-20L2 is 73.3 µM (inactive); in the test on LXFL 529, 37.7 µM (inactive); in the test with SNB-78 it was > 100 µM (inactive); with RXF 631 it was 92.9 µM (inactive); with DLD-1, 45.9 µM (inactive); with DMS-114, 30.5 µM (inactive). For the same compound, the GI50 with M19-MEL was 17.3 µM (inactive); with DMS-273, 39.2 µM (inactive).

For `C#CCN(C(=O)C(F)(F)F)c1ccc(C(=O)c2ccc(N(CC#C)C(=O)C(F)(F)F)cc2)cc1`, the GI50 in the test with KM-20L2 is > 100 µM (inactive); in the test with LXFL 529, 27.7 µM (inactive); in the test on SNB-78 it was 52.4 µM (inactive); in the test on DLD-1, 37.6 µM (inactive); in the test with DMS-114 it was 20.7 µM (inactive); in the test on M19-MEL, 35.5 µM (inactive). Moreover, the GI50 with DMS-273 was 24.1 µM (inactive).

`CCOC(=O)C1=C(Nc2ccc(Br)cc2)OC/C1=N\NC(=O)c1ccccc1O`: the GI50 with KM-20L2 was > 60 µM (inactive); in the test on LXFL 529, 14.5 µM (inactive); in the test with SNB-78, 7.93 µM (inactive); in the test with DLD-1, 18 µM (inactive); in the test on M19-MEL, 35 µM (inactive); in the test on DMS-273, 4.69 µM (inactive).

Turning to `O=C1/C(=C/c2ccc(O)c(O)c2)CCC/C1=C\c1ccc(O)c(O)c1`, the GI50 in the test on KM-20L2 was 11.6 µM (inactive); in the test on XF498, 3.13 µM (inactive); in the test on SNB-78, 2.11 µM (inactive); in the test on DLD-1 it was 2.68 µM (inactive); in the test on M19-MEL it was 3.43 µM (inactive); in the test on DMS-273 it was 2.06 µM (inactive).

Turning to `COc1ccccc1/N=N/C(C(=O)c1ccccc1)C(=O)c1ccccc1`, the GI50 in the test with KM-20L2 is 26.3 µM (inactive); in the test on LXFL 529, 15.5 µM (inactive); with XF498 it was 19.5 µM (inactive); in the test on DLD-1, 17.6 µM (inactive); in the test with DMS-114, 15.2 µM (inactive); with M19-MEL it was 15 µM (inactive). Also, the GI50 with DMS-273 is 16.4 µM (inactive).

On to `CCOC(=O)NC(=O)c1cn(-c2ccc(CCOC(=O)NCCCCCCNC(=O)OCCc3ccc(-n4c(=O)[nH]cc(C(=O)NC(=O)OCC)c4=O)cc3)cc2)c(=O)[nH]c1=O`, for which the GI50 in the test on KM-20L2 is > 100 µM (inactive); in the test on LXFL 529 it was 22.2 µM (inactive); in the test on SNB-78 it was 58.2 µM (inactive); in the test with DLD-1, > 100 µM (inactive); in the test with DMS-114 it was > 75.2 µM (inactive); in the test on M19-MEL, 47 µM (inactive). Also, the GI50 in the test with DMS-273 is > 79.8 µM (inactive).

For `COc1ccccc1/C=C1\CCC(CN(C)C)C1=O` (stereo not given), the GI50 in the test with KM-20L2 was 4.24 µM (inactive); in the test on XF498, 18.3 µM (inactive); with SNB-78, 9.4 µM (inactive); in the test on DLD-1, 2.2 µM (inactive); in the test on DMS-114, 2.75 µM (inactive); with M19-MEL, 2.78 µM (inactive). In addition, the GI50 in the test on DMS-273 is 6.9 µM (inactive).

Turning to `CCOC(=O)NN(C(=O)OCC)C(C(=O)c1ccc(Cl)cc1)=C1NCCN1`, the GI50 with KM-20L2 is > 100 µM (inactive); in the test on LXFL 529, > 100 µM (inactive); in the test with XF498 it was 78.9 µM (inactive); in the test on SNB-78 it was > 100 µM (inactive); in the test with DLD-1 it was > 100 µM (inactive); in the test on DMS-114 it was > 100 µM (inactive). For the same compound, the GI50 in the test on M19-MEL and in the test with DMS-273 was > 100 µM (inactive) each time.

Take `COC(=O)[C@H](C)N(C)C(=O)C(CC(N)=O)N(C)C(=O)[C@H](Cc1ccccc1)N(C)C(=O)[C@@H]1CCCN1C(=O)[C@H](C(C)C)N(C)C(=O)C(C(C)C)N(C)C(=O)[C@@H](NC(=O)OC(C)(C)C)C(C)C` (stereo not given in full) (Boc-V[ξNMeV][NMeV]P[NMeF][ξNMeN][NMeA]-OMe): the GI50 in the test with KM-20L2 is 39.2 µM (inactive); in the test with LXFL 529, 24.2 µM (inactive); with XF498, 26.7 µM (inactive); in the test with SNB-78, 50.6 µM (inactive); in the test with DLD-1, 43.7 µM (inactive); with DMS-114, 16.8 µM (inactive). Besides, the results for the GI50 with M19-MEL and with DMS-273 were 18.4 µM (inactive) and 55.5 µM (inactive), respectively.

As to `[N-]=[N+]=Nc1ccc(CCN2CCN(c3cccc(C(F)(F)F)c3)CC2)cc1I`, the GI50 in the test with KM-20L2 is 31.3 µM (inactive); in the test with LXFL 529 it was 50 µM (inactive); in the test with SNB-78 it was > 100 µM (inactive); with M19-MEL it was 83 µM (inactive); in the test on DMS-273, 72.6 µM (inactive).

As to `O=C(O)c1ccc(S(=O)(=O)c2ccccc2)c([N+](=O)[O-])c1`, the GI50 in the test on KM-20L2, with LXFL 529, with SNB-78, in the test on DLD-1, in the test on DMS-114 and in the test with M19-MEL was > 100 µM (inactive) throughout. Further, in the test with DMS-273, the GI50 was 63.8 µM (inactive).

For the compound `O=C(CC(=O)Nc1ccc(Cl)cc1)NNCC(=O)Nc1nc(-c2ccccc2)cs1`, the GI50 in the test with KM-20L2 was 59.6 µM (inactive); in the test with LXFL 529 it was 75.7 µM (inactive); in the test on XF498, > 100 µM (inactive); in the test with SNB-78 it was > 100 µM (inactive); with DLD-1, > 100 µM (inactive); with DMS-114, > 100 µM (inactive). In addition, the GI50 in the test with M19-MEL and with DMS-273 was > 100 µM (inactive) in each case.

As for `O=c1cnn2c(n1)sc1ccc3ccccc3c12`, the GI50 in the test on KM-20L2, in the test with LXFL 529, with XF498, with SNB-78, with DLD-1 and in the test on DMS-114 was > 100 µM (inactive) in each case. Moreover, the GI50 in the test on M19-MEL and with DMS-273 was > 100 µM (inactive) throughout.

`COc1cccc2c1C(=O)c1c(O)c3c(c(O)c1C2=O)C[C@@](O)(C(C)=O)C[C@@H]3OC1CC(N(Cc2ccccc2)Cc2ccccc2)C(O)C(C)O1` (stereo not given in full): the GI50 is 24.9 µM (inactive) with KM-20L2; 0.69 µM (active) in the test on LXFL 529; 2.56 µM (inactive) in the test on SNB-78; 10.1 µM (inactive) in the test on DLD-1; 39.8 µM (inactive) with DMS-114; 23.2 µM (inactive) in the test on M19-MEL. Also, the GI50 in the test with DMS-273 is 3.78 µM (inactive).

For `Cn1nc(-c2ccccc2)c(C(=O)/C=C/c2ccccc2)c(N2CCCCC2)c1=O`, the GI50 in the test on KM-20L2 was 10.4 µM (inactive); in the test on LXFL 529, > 100 µM (inactive); with RXF 631 it was > 100 µM (inactive); in the test on DLD-1 it was 9.35 µM (inactive); in the test on DMS-114 it was > 100 µM (inactive); in the test with DMS-273, 37.7 µM (inactive).

Values taken from ChEMBL document CHEMBL1201862, “PubChem BioAssay data set” (2004).
